Several values for one entry are separate records, joined by “and”; a condition that tells them apart may be missing. Identical values can stand only once. Entries after “also recorded” stand apart in the source; their conditions may differ.
Assays:
[1] = system: G-quadruplex (G4) DNA; design: method as in PMID 28211448; details: in vitro and in vivo; cited from earlier work
[2] = system: γ-H2AX (double-stranded DNA breaks); assay: γ-H2AX immunofluorescent staining with and without UVA radiation; format: cell-based; details: CX5461 10^-8M, 5x10-8M; PDS 20 x 10^-6M
Protocol: (§1) Human epidermal keratinocytes (HEKa) cells were sourced from Thermo Fisher Scientific, and were grown in EpiLife™ Medium with HKGS. HAP WT and XPA knockout cell lines (Horizon Discovery) were cultured in IMDM, 10% FCS. Human HCT116 cells, U2OS cells (ATCC) were grown in McCoy’s 5 A medium with 10% FBS and L-glutamine. All cell lines are mycoplasma free and have been authenticated by STR or SNP profiling. CX-5461 was provided by Senhwa Biosciences, Inc. PDS is from Sigma-Aldrich, BRACO-19 from Alfa Chemistry, PhENDC3 is from Sigma-Aldrich, γ -H2AX antibody from Abcam (1:1000 for IF) and CPD antibody (1:1500) from Cosmo Bio Ltd. (Catalog number: CAC-NM-DAD-001). The WST-1 assay was performed as previously described, γ H2AX foci staining was performed as previously described. Immunofluorescence staining of CPD was performed according to the protocol from the manufacturer (Cosmo Bio Ltd).
Supplementary Figures and Tables
Supplementary Figure 1. UVA radiation increased double-stranded DNA breaks and ROS.
Representative pictures of g -H2AX immunofluorescent staining with and without UVA radiation, for […]
condition, quantified in (b) Quantile and mean intensity of g-H2AX level per cell, vertical axis. UV and drug factor conditions, horizontal axis. […] Number of cells as in Figure 5 g (c) The ratio of ROS level measured after UVA irradiation versus before UVA irradiation was calculated. […]

[3] = system: WT HAP1 cells; assay: HAP1 WT cytotoxicity (WST-1 assay) with and without UVA; format: cell-based; details: for WST-1 raw signal (Figure 5h): replicates
Protocol: (§2) Fig. 5 Comparison of G4 ligand photosensitization. […] Vertical axis, fractional survival, horizontal axis log10 drug concentration (M) (f) Representative images of CPD immunofluorescent staining under UV and drug treatment conditions for U2OS cells, quantified from biological duplicates in (g) (h) Scale bar = 100um. U2OS cells were treated with drug or vehicle control, then immediately irradiated with UVA 125 mJ/cm^2; and fixed 1 h later for immunofluorescence staining with CPD antibody. g Distribution of mean intensity of CPD level per cell (total n = in labels), with two biological repeats per condition. Vertical axis, mean CPD intensity per cell, horizontal axis, conditions (h) WT or KO XPA HAP1 cells assayed for cytotoxicity. Vertical axis, fractional survival (WST-1 assay). The horizontal axis, log10 drug concentration (M). Error bars = standard deviation of the mean. Three biological repeats per condition.
as §1

[4] = system: XPA knockout HAP1 cells; assay: HAP1 XPA knockout cytotoxicity (WST-1 assay) with and without UVA; format: cell-based; details: for WST-1 raw signal (Figure 5h): replicates
Protocol: as §2, §1

[5] = system: HCT116 cells; assay: HCT116 cytotoxicity (WST-1 assay) with and without UVA radiation; format: cell-based, Human
How it was run: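 Fractional survival measured by WST-1 in wild-type and XPA-knockout HAP1 (IMDM, 10% FCS) and HCT116 cells, with or without UVA, across log drug concentrations; three biological repeats. For CPD staining, U2OS cells were treated with drug or vehicle, irradiated immediately with UVA 125 mJ/cm^2, fixed 1 h later and stained with anti-CPD; mean intensity per cell, two biological repeats.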

## Cc1cnc(CNC(=O)c2c(=O)c3ccc(N4CCCN(C)CC4)nc3n3c2sc2ccccc23)cn1 [CX-5461]
[1]
  G4 binding and stabilization: potent G4 binder and stabilizer
[2]
  DNA damage (γ-H2AX) in the presence of UVA: synergistically increased; also recorded: markedly increased
[3]; conc 1.00E-07, 125 mJ/cm2 WT
  WST-1 raw signal (Figure 5h): 0.124 and 0.1238
[3]; conc 1.00E-07, WT No UV
  WST-1 raw signal (Figure 5h): 0.1248 and 0.1255
[3]; conc 1.25E-08, 125 mJ/cm2 WT
  WST-1 raw signal (Figure 5h): 0.124 and 0.1239
[3]; conc 1.25E-08, WT No UV
  WST-1 raw signal (Figure 5h): 2.9461 and 2.8715
[3]; conc 1.56E-09, 125 mJ/cm2 WT
  WST-1 raw signal (Figure 5h): 1.6148 and 1.5014
[3]; conc 1.56E-09, WT No UV
  WST-1 raw signal (Figure 5h): 3.4383 and 3.4235
[3]; conc 2.00E-07, 125 mJ/cm2 WT
  WST-1 raw signal (Figure 5h): 0.1302 and 0.1263
[3]; conc 2.00E-07, WT No UV
  WST-1 raw signal (Figure 5h): 0.1284 and 0.1271
[3]; conc 2.50E-08, 125 mJ/cm2 WT
  WST-1 raw signal (Figure 5h): 0.1237 and 0.1243
[3]; conc 2.50E-08, WT No UV
  WST-1 raw signal (Figure 5h): 0.7915 and 0.7888
[3]; conc 3.13E-09, 125 mJ/cm2 WT
  WST-1 raw signal (Figure 5h): 0.139 and 0.1466
[3]; conc 3.13E-09, WT No UV
  WST-1 raw signal (Figure 5h): 3.3417 and 3.4651
[3]; conc 3.91E-10, 125 mJ/cm2 WT
  WST-1 raw signal (Figure 5h): 3.3908 and 3.3132
[3]; conc 3.91E-10, WT No UV
  WST-1 raw signal (Figure 5h): 3.3655 and 3.4278
[3]; conc 5.00E-08, 125 mJ/cm2 WT
  WST-1 raw signal (Figure 5h): 0.1258 and 0.124
[3]; conc 5.00E-08, WT No UV
  WST-1 raw signal (Figure 5h): 0.1245 and 0.1268
[3]; conc 6.25E-09, 125 mJ/cm2 WT
  WST-1 raw signal (Figure 5h): 0.1242 and 0.126
[3]; conc 6.25E-09, WT No UV
  WST-1 raw signal (Figure 5h): 3.3238 and 3.2658
[3]; conc 7.81E-10, 125 mJ/cm2 WT
  WST-1 raw signal (Figure 5h): 3.145 and 2.7907
[3]; conc 7.81E-10, WT No UV
  WST-1 raw signal (Figure 5h): 3.4055 and 3.3833
[3]; with UVA
  effect of UVA radiation on cytotoxicity: dramatically increased the cytotoxicity
[4]; conc 1.00E-07, 125 mJ/cm2 XPA
  WST-1 raw signal (Figure 5h): 0.1279 and 0.1288
[4]; conc 1.00E-07, XPA No UV
  WST-1 raw signal (Figure 5h): 0.1234 and 0.1195
[4]; conc 1.25E-08, 125 mJ/cm2 XPA
  WST-1 raw signal (Figure 5h): 0.1288 and 0.1302
[4]; conc 1.25E-08, XPA No UV
  WST-1 raw signal (Figure 5h): 3.2483 and 2.9851
[4]; conc 1.56E-09, 125 mJ/cm2 XPA
  WST-1 raw signal (Figure 5h): 0.1344 and 0.1335
[4]; conc 1.56E-09, XPA No UV
  WST-1 raw signal (Figure 5h): 3.436 and 3.4453
[4]; conc 2.00E-07, 125 mJ/cm2 XPA
  WST-1 raw signal (Figure 5h): 0.0895 and 0.1298
[4]; conc 2.00E-07, XPA No UV
  WST-1 raw signal (Figure 5h): 0.1255 and 0.1238
[4]; conc 2.50E-08, 125 mJ/cm2 XPA
  WST-1 raw signal (Figure 5h): 0.1291 and 0.1284
[4]; conc 2.50E-08, XPA No UV
  WST-1 raw signal (Figure 5h): 0.4389 and 0.6241
[4]; conc 3.13E-09, 125 mJ/cm2 XPA
  WST-1 raw signal (Figure 5h): 0.128 and 0.1287
[4]; conc 3.13E-09, XPA No UV
  WST-1 raw signal (Figure 5h): 3.4207 and 3.5618
[4]; conc 3.91E-10, 125 mJ/cm2 XPA
  WST-1 raw signal (Figure 5h): 2.554 and 2.4891
[4]; conc 3.91E-10, XPA No UV
  WST-1 raw signal (Figure 5h): 3.4121 and 3.399
[4]; conc 5.00E-08, 125 mJ/cm2 XPA
  WST-1 raw signal (Figure 5h): 0.1275 and 0.1296
[4]; conc 5.00E-08, XPA No UV
  WST-1 raw signal (Figure 5h): 0.1252 and 0.1218
[4]; conc 6.25E-09, 125 mJ/cm2 XPA
  WST-1 raw signal (Figure 5h): 0.1286 and 0.1316
[4]; conc 6.25E-09, XPA No UV
  WST-1 raw signal (Figure 5h): 3.488 and 3.4015
[4]; conc 7.81E-10, 125 mJ/cm2 XPA
  WST-1 raw signal (Figure 5h): 0.5854 and 0.7406
[4]; conc 7.81E-10, XPA No UV
  WST-1 raw signal (Figure 5h): 3.4022 and 3.4603
[4]; with UVA
  effect of UVA radiation on cytotoxicity: to a greater extent in XPA knockout cells
[5]; 1.00E-07 M, 5mJ/cm2 UV
  WST-1 reading (source data of fractional survival): 0.1726 and 0.1634
[5]; 1.00E-07 M, 125 mJ/cm2 UV
  WST-1 reading (source data of fractional survival): 0.1356 and 0.1403
[5]; 1.00E-07 M, no UV
  WST-1 reading (source data of fractional survival): 0.3459 and 0.3709
[5]; 1.25E-08 M, 5mJ/cm2 UV
  WST-1 reading (source data of fractional survival): 1.8446 and 1.2623
[5]; 1.25E-08 M, 125 mJ/cm2 UV
  WST-1 reading (source data of fractional survival): 0.2266 and 0.2178
[5]; 1.25E-08 M, no UV
  WST-1 reading (source data of fractional survival): 2.7124 and 3.0988
[5]; 1.56E-09 M, 5mJ/cm2 UV
  WST-1 reading (source data of fractional survival): 3.1522 and 3.1435
[5]; 1.56E-09 M, 125 mJ/cm2 UV
  WST-1 reading (source data of fractional survival): 1.3637 and 1.8262
[5]; 1.56E-09 M, no UV
  WST-1 reading (source data of fractional survival): 3.1762 and 3.2869
[5]; 2.00E-07 M, 5mJ/cm2 UV
  WST-1 reading (source data of fractional survival): 0.1417 and 0.1383
[5]; 2.00E-07 M, 125 mJ/cm2 UV
  WST-1 reading (source data of fractional survival): 0.1411 and 0.1324
[5]; 2.00E-07 M, no UV
  WST-1 reading (source data of fractional survival): 0.3331 and 0.2744
[5]; 2.50E-08 M, 5mJ/cm2 UV
  WST-1 reading (source data of fractional survival): 0.4834 and 0.4002
[5]; 2.50E-08 M, 125 mJ/cm2 UV
  WST-1 reading (source data of fractional survival): 0.1513 and 0.1801
[5]; 2.50E-08 M, no UV
  WST-1 reading (source data of fractional survival): 2.611 and 2.0841
[5]; 3.13E-09 M, 5mJ/cm2 UV
  WST-1 reading (source data of fractional survival): 2.2833 and 2.9624
[5]; 3.13E-09 M, 125 mJ/cm2 UV
  WST-1 reading (source data of fractional survival): 0.7443 and 0.527
[5]; 3.13E-09 M, no UV
  WST-1 reading (source data of fractional survival): 3.0831 and 3.1401
[5]; 3.91E-10 M, 5mJ/cm2 UV
  WST-1 reading (source data of fractional survival): 3.2465 and 3.2794
[5]; 3.91E-10 M, 125 mJ/cm2 UV
  WST-1 reading (source data of fractional survival): 2.6106 and 3.2813
[5]; 3.91E-10 M, no UV
  WST-1 reading (source data of fractional survival): 3.2563 and 3.2975
[5]; 5.00E-08 M, 5mJ/cm2 UV
  WST-1 reading (source data of fractional survival): 0.1995 and 0.2071
[5]; 5.00E-08 M, 125 mJ/cm2 UV
  WST-1 reading (source data of fractional survival): 0.1444 and 0.1401
[5]; 5.00E-08 M, no UV
  WST-1 reading (source data of fractional survival): 0.8754 and 0.871
[5]; 6.25E-09 M, 5mJ/cm2 UV
  WST-1 reading (source data of fractional survival): 2.1762 and 2.4422
[5]; 6.25E-09 M, 125 mJ/cm2 UV
  WST-1 reading (source data of fractional survival): 0.3527 and 0.3295
[5]; 6.25E-09 M, no UV
  WST-1 reading (source data of fractional survival): 2.9424 and 3.2905
[5]; 7.81E-10 M, 5mJ/cm2 UV
  WST-1 reading (source data of fractional survival): 3.2172 and 3.1228
[5]; 7.81E-10 M, 125 mJ/cm2 UV
  WST-1 reading (source data of fractional survival): 2.9376 and 2.9926
[5]; 7.81E-10 M, no UV
  WST-1 reading (source data of fractional survival): 3.2642 and 3.2669
[5]; UV 5 mJ/cm^2 and 125 mJ/cm^2
  potentiation of UVA-induced cytotoxicity: Strong potentiation

Source: publication PMC9232501, “Results of the phase I CCTG IND.231 trial of CX-5461 in patients with advanced solid tumors enriched for DNA-repair deficiencies” (Nature Communications, 2022)
